In patent US11229628B2, “TRPA1 and TRPV4 inhibitors and methods of using the same for organ-specific inflammation and itch” (Duke University, priority 2015, dated 2022):
Entries after “also recorded” stand apart in the source; their conditions may differ.

How the values were obtained:
[1] = biological target: T1, human TRPV2 (Homo sapiens, UniProt Q9Y5S1); assay: Ca2+ signal in N2a cells transfected with human TRPV2 (hypotonicity stimulation); assay type: cell-based; settings: hypotonicity (260 mosmol/L) stimulation
T1 construct: expressed in transfected cells; host or cells: N2a cells
T1 sequence (Q9Y5S1 1-764): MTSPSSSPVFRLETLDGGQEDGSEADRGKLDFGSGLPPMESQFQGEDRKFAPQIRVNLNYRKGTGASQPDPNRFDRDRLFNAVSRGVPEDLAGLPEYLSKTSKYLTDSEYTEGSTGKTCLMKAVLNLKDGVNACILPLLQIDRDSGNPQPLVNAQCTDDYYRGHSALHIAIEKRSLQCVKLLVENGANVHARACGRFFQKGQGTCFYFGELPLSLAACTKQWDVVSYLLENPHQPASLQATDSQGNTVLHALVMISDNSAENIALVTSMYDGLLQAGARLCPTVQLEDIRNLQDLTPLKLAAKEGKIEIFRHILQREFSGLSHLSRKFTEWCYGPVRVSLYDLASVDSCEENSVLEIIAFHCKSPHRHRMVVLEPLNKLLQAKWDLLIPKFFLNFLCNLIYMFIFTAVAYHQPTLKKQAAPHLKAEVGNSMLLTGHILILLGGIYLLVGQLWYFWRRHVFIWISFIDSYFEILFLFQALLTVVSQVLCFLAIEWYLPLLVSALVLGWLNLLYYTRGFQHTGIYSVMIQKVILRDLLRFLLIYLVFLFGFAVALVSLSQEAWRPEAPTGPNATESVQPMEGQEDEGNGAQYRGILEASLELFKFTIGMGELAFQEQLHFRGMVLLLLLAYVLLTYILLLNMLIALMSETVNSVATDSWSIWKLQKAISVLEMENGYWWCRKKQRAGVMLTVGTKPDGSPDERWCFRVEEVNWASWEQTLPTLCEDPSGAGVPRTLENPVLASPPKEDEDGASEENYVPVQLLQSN
Protocol: Compounds were tested for their effect on TRPV1, TRPV2, and TRPV3. Methods were similar to those described in Example 15. Briefly, N2a cells were transfected with human TRPV1, TRPV2, or TRPV3. eGFP-transfection was used as control. For specific stimulation of TRPV1, 5 μM capsaicin was used. For stimulation of TRPV2, hypotonicity (260 mosmol/L) was used, based on previous reports of TRPV2 being osmotically responsive. N2a cells were not responsive to hypotonicity, and neither were control-transfected cells. For TRPV3-expressing cells, camphor (20% of a commercially available stock solution) was used. […] Stimulation and control protocols were applied as for TRPA1-expressing N2a cells as detailed above in Example 15.
For TRPV1, TRPV2, and TRPV3, Ca2+ transience was not affected by administration of 16-8 or 16-8/18hy.

[2] = test system: ET1 expression in 1° MK; assay: ET1 expression by UVB-exposed 1° MK (immunocytochemistry); assay type: cell-based, mouse; settings: 295 nm UVB-LED, 24 hours
Protocol: 1° MK were exposed to UVB using the UV optical system (295 nm LED). 24 hours later the cells were fixed and fluorescently immunolabeled for ET1. Digital images were captured and subjected to morphometry.
Mouse keratinocytes were cultured on collagen coated quartz coverslips and then stimulated from the bottom using the previously mentioned UV optical system using the 295 nm LED. 24 hours later the cells were fixed in 4% formaldehyde in PBS for 20 minutes, permeabilized with 0.1% Triton X-100 in PBS for 10 minutes, washed, then blocked in 10% normal goat serum in PBS for 45 minutes. Coverslips were incubated overnight with primary antibody mouse anti-ET1 (1:200; Abcam), washed three times in PBS and incubated with secondary antibody for 2 hours at 25° C. Coverslips were washed three times in PBS, once with double-distilled H2O. Digital images were captured using a 40× immersion lens on the BX61 Olympus upright microscope. Morphometric analysis was conducted using ImageJ freeware with tailored regions-of-interest.
We tested whether UVB causes ET1 upregulation in a TRPV4-dependent manner. Given the exquisite wave-length dependence of ET1 expression in 1° MKs, we resorted to the UVB-LED device as for Ca++ imaging (FIG. 6A and FIG. 2A-D). […] Consistent with its effects on UVB-evoked Ca++ transients, PLC-inhibitor U73122 also dampened ET1 expression. […] This leads to TRPV4-dependent Ca++ signaling, which in turn amplifies ET1 signaling in a paracrine/autocrine fashion.

[3] = test system: mice; assay: UVB-overexposure evoked nocifensive behavior (sunburn model), topical treatment; assay type: in vivo, mouse; settings: 0.5 mM in 40 μL
Protocol: Compounds were tested for their effect on nocifensive behavior (response to pain) following UVB overexposure. Behavioral tests were performed to evaluate the decrease in withdrawal thresholds in response to mechanical von Frey hair or thermal stimuli applied to hind paws. The Von-Frey apparatus (Ugo Basile) applied a mechanical stimulus with a flexible steel wire from underneath the hind paw. The force leading to withdrawal was determined. For the thermal stimuli test, paws were stimulated with heat from underneath applied by an infrared beam (Hargreave's test apparatus; Ugo Basile), and withdrawal latencies were recorded. The withdrawal thresholds were ascertained before and after UV exposure. Mice were exposed to UVB 3-5 days after the last application of tam/oil, using a Bio-Rad Gel Doc 2000 UV transilluminator (302 nm) for 5 min with an exposure of 600 mJ/cm^2. This represents 5-10 times the minimal erythema-inducing dose, in keeping with the rationale of inducing sunburn and studying sunburn-evoked pain.

[4] = Stability on incubation in serum; assay type: in vitro ADME; settings: 3 h and 12 h incubation in serum at 37° C.
Protocol: It was also tested whether compounds are readily broken down in systemic fluid, for which serum was used.

Compound	Ca2+ transience, TRPV2 [1]	ET1 immunoreactivity in UVB-exposed 1° MK [2]	UVB-overexposure evoked nocifensive behavior (response to pain) [3]	concentration of a fixed spiked amount after incubation in serum [4]
CCN(CCc1ccc(Nc2nc(-c3ccccc3)cs2)cc1)Cc1ccccc1 [16-8/18hy]	not affected			
CN(CCc1ccc(Nc2nc(-c3cccnc3)cs2)cc1)Cc1ccccc1 [GSK205]		diminished; also recorded: significant down-regulation	as effective as vehicle	
CN(CCc1ccc(Nc2nc(-c3ccccc3)cs2)cc1)Cc1ccccc1 [Compound 16-8]	not affected		especially effective in reducing the response to pain	did not change
